According to patent US12377112B2, “Methods of treating neurocognitive disorders, chronic pain and reducing inflammation” (priority 2019, dated 2025):

System: healthy subjects
Experiment: Phase 1 study: Positive and Negative Affect Schedule (PANAS)
Format: in vivo, human
Conditions: for PANAS-Negative, change from baseline, LS mean / PANAS-Positive, change from baseline, LS mean: Post-Treatment Day 0
Text: In some embodiments, the Positive and Negative Affect Schedule (PANAS) is used to evaluate the safety and/or efficacy of psilocybin. The PANAS measures the acute emotional drug effects and comprises 2 mood scales that measure positive and negative affect. Positive affect refers to the propensity to experience positive emotions and interact with others positively. Negative affect involves experiencing the world in a more negative way. Subjects respond to 10 questions associated with negative affect and 10 questions associated with positive affect. The questions are scaled using a 5-point scale that ranges from “slightly or not at all (1)” to “extremely (5)”. A total higher score on the positive affect questions indicates more of a positive effect while a lower score on the negative affect questions indicates less of a negative affect. In some embodiments, after treating according to the methods of the disclosure, a subject experiences a decrease in negative affect score of the PANAS, between about 5% and about 100%, for example about 5%, about 10%, about 15%, about 20%, about 25%, about 30%, about 35%, about 40%, about 45%, about 50%, about 55%, about 60%, about 65%, about 70%, about 75%, about 80%, about 85%, about 90%, about 95%, or about 100%, compared to prior to treatment. In some embodiments, after treating according to the methods of the disclosure, a subject experiences an increase in positive affect score of the PANAS, between about 5% and about 100%, for example about 5%, about 10%, about 15%, about 20%, about 25%, about 30%, about 35%, about 40%, about 45%, about 50%, about 55%, about 60%, about 65%, about 70%, about 75%, about 80%, about 85%, about 90%, about 95%, or about 100%, about 110%, about 120%, about 130%, about 140%, about 150%, about 160%, about 170%, about 180%, about 190%, about 200%, about 210%, about 220%, about 230%, about 240%, about 250%, about 260%, about 270%, about 280%, about 290%, or about 300%, or more, compared to prior to treatment.
The effects of psilocybin usually started about 20 to 30 min after administration, becoming most intense in the first 90 to 120 min and gradually subsiding in about 5 to 6 hours. The subjects were asked to remain in the room for the duration of the session regardless of the intensity of the effects, preferably lying down and mostly silent unless they have a concern or need to communicate a discomfort or seek reassurance from the therapist, or use the restroom. A light meal and fruit were available for the subject after the session. After the acute effects of study drug administration had subsided, all subjects were assessed for safety and asked to complete the following assessments: PANAS and 5D-ASC. Medications used, if any, during the study drug administration session, and adverse events were recorded. The subjects also discussed their psilocybin experience with their therapist. The subject was discharged 6 to 8 hours post dose when, in the opinion of the investigator, the acute effects of psilocybin were resolved. After the acute effects of study drug administration subsided, subjects returned home accompanied by a family member, friend, or chaperone. The therapists checked with the subjects by phone at the end of the day to ensure that the subject arrived home safely.
The Positive and Negative Affects Schedule (PANAS) score was also evaluated to measure the effect of psilocybin.

Structure (SMILES): CN(C)CCc1c[nH]c2cccc(OP(=O)(O)O)c12 [Psilocybin, psilocybin]
- PANAS negative affect, mean increase (25 mg, baseline to day of dosing): 1.3
- PANAS-Negative, change from baseline, LS mean (Psilocybin 10 mg): −0.6
- PANAS-Positive, change from baseline, LS mean (Psilocybin 10 mg): 0.7
- PANAS-Negative, change from baseline, LS mean (Psilocybin 25 mg): 1.3
- PANAS-Positive, change from baseline, LS mean (Psilocybin 25 mg): −0.4
